Laboratory results as given in patent US10918638B2, “Histone deacetylase 6 inhibition for enhancing T-cell function during anti-tumor response and tumor-peptide vaccination” (H. LEE MOFFITT CANCER CENTER AND RESEARCH INSTITUTE, INC., priority 2014, dated 2021).

Key:
[1] = tested on: Fc-muMCL1 lymphoma cells; assay: Fc-muMCL1 lymphoma tumor growth in SCID mice; format: in vivo; settings: SCID (lympho-deficient) mice, 35 mg/kg daily for 16 days vs vehicle
Procedure: (§1) FIGS. 3A and 3B. […] (FIG. 3A) C57BL/6 or (FIG. 3B) SCID mice were subcutaneous injected with 3×10^6 Fc-muMCL1 lymphoma cells. After tumor appearance, six mice were treated daily with 35 mg/kg of Tubastatin A and four mice received vehicle control, for 16 days. […] To further evaluate whether these in vivo responses were dependent on T-cells, WT or lympho-deficient, lymphoma-bearing mice were treated with an HDAC6 inhibitor. HDAC6 inhibition led to reduced tumor burden in WT mice, which was absent in lympho-deficient mice, highlighting the importance of lymphocytes in the aforementioned in vivo results. Thus, the role of HDAC6 in regulating immune cells during anti-tumor response appears to be more important than the previously reported role as a regulator of Treg function.

[2] = tested on: Fc-muMCL1 lymphoma cells; assay: Fc-muMCL1 lymphoma tumor growth in C57BL/6 mice; format: in vivo; settings: C57BL/6 (WT) mice, 35 mg/kg daily for 16 days vs vehicle
Procedure: as §1

CN1CCc2c(c3ccccc3n2Cc2ccc(C(=O)NO)cc2)C1 [Tubastatin A]
anti-tumor response / tumor burden [1]: dependent on an intact immune system | anti-tumor response / tumor burden [2]: Enhanced anti-tumor response
